The source made the active and inactive calls. The calls are words filed in the database; no cut-off is given here.
How the values were obtained:
[1] = Inhibition of MTP assessed as inhibition of apoB secretion from canine hepatocytes; format: cell-based; conditions: Canis lupus familiaris, Hepatocyte
Homo sapiens [2] = organism: Homo sapiens; assay: Inhibition of kainate receptor at 1 uM
[3] = target: Histamine H1 receptor (Homo sapiens) (UniProt P35367); assay: Inhibition of histamine H1 receptor at 1 uM
[4] = target: Histamine H3 receptor (Homo sapiens) (UniProt Q9Y5N1); assay: Inhibition of histamine H3 receptor at 1 uM
Sequence of Histamine H3 receptor (Homo sapiens) (Q9Y5N1 whole entry): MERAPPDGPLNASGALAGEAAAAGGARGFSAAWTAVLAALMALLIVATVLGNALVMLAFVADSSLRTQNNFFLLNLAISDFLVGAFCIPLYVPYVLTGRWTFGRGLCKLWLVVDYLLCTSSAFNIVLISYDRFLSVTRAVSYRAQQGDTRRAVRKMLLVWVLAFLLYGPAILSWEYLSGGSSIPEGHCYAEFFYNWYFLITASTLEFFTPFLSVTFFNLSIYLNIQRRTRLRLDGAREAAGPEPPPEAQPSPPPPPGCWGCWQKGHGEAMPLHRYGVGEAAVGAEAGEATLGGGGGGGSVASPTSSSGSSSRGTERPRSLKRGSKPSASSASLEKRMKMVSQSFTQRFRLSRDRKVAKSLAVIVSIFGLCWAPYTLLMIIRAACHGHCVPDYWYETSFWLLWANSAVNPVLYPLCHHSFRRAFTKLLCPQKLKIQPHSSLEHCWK

Homo sapiens [5] = organism: Homo sapiens; assay: Inhibition of NMDA receptor at 1 uM
[6] = target: Adenosine receptor A1 (Homo sapiens) (UniProt P30542); assay: Inhibition of adenosine A1 receptor at 1 uM
Sequence of Adenosine receptor A1 (Homo sapiens) (P30542 whole entry): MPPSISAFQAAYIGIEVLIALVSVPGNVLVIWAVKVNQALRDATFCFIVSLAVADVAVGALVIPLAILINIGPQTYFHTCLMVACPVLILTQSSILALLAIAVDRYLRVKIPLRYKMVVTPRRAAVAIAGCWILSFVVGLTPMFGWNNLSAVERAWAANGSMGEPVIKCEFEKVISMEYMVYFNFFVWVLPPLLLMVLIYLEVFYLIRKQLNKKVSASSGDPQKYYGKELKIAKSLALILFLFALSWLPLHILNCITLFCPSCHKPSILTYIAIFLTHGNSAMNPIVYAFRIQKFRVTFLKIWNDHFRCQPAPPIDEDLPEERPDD

[7] = target: Adrenergic receptor alpha-2 (Homo sapiens) (UniProt P08913+P18825+P18089); assay: Inhibition of adrenergic a2 receptor at 1 uM; format: protein assay
[8] = target: Beta-1 adrenergic receptor (Homo sapiens) (UniProt P08588); assay: Inhibition of adrenergic b1 receptor at 1 uM
[9] = target: Beta-2 adrenergic receptor (Homo sapiens) (UniProt P07550); assay: Inhibition of adrenergic b2 receptor at 1 uM
Sequence of Beta-2 adrenergic receptor (Homo sapiens) (P07550 whole entry, looked up): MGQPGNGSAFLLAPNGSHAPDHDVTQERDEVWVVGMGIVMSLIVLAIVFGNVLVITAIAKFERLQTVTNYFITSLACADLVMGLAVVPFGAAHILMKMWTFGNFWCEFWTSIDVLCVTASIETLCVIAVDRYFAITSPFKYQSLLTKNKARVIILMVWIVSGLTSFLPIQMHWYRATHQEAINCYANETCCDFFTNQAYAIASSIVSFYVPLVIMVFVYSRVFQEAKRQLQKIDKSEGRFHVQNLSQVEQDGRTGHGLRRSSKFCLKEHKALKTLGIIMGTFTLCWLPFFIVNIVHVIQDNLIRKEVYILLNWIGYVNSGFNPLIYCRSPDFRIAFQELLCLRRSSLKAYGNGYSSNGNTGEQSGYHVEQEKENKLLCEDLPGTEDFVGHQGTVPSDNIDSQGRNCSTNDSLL

[10] = target: Type-1 angiotensin II receptor (Homo sapiens) (UniProt P30556); assay: Inhibition of AT1 receptor at 1 uM
[11] = target: Type-2 angiotensin II receptor (Homo sapiens) (UniProt P50052); assay: Inhibition of AT2 receptor at 1 uM
Sequence of Type-2 angiotensin II receptor (Homo sapiens) (P50052 whole entry): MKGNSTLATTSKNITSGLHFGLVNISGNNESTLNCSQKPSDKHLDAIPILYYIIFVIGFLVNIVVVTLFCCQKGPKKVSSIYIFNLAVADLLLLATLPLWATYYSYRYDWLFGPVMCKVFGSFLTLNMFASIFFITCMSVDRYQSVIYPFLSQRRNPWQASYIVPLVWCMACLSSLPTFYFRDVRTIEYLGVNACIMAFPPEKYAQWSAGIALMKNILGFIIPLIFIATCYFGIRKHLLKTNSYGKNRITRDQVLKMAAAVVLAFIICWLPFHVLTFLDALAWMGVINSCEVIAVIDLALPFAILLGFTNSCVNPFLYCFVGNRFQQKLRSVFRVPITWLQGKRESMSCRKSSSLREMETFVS

Homo sapiens [12] = organism: Homo sapiens; assay: Inhibition of central benzodiazepine receptor at 1 uM
[13] = target: B2 bradykinin receptor (Homo sapiens) (UniProt P30411); assay: Inhibition of bradykinin B2 receptor at 1 uM
Sequence of B2 bradykinin receptor (Homo sapiens) (P30411 whole entry): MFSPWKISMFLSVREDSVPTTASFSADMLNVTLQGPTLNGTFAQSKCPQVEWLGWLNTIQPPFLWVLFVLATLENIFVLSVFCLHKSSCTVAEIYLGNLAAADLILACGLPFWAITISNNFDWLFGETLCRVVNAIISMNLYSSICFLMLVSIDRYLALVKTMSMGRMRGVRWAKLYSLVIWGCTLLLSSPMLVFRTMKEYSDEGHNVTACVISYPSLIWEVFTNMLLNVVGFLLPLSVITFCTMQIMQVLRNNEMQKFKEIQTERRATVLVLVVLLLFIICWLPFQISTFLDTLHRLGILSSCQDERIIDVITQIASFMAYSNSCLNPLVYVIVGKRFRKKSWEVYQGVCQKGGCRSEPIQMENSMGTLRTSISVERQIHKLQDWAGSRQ

[14] = target: 5-hydroxytryptamine receptor 1A (Homo sapiens) (UniProt P08908); assay: Inhibition of 5HT1A receptor at 1 uM
Sequence of 5-hydroxytryptamine receptor 1A (Homo sapiens) (P08908 whole entry): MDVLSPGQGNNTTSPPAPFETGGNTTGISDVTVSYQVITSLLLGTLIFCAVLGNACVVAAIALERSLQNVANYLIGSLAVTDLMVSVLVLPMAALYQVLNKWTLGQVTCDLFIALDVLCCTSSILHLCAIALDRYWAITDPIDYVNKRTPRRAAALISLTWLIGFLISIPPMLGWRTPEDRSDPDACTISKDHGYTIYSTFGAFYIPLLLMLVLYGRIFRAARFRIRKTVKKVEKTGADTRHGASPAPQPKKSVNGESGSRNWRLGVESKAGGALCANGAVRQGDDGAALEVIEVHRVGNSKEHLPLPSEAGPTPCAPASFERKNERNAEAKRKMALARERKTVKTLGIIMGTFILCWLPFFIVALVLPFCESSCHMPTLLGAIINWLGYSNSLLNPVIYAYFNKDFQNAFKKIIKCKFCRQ

[15] = target: 5-hydroxytryptamine receptor 2A (Homo sapiens) (UniProt P28223); assay: Inhibition of 5HT2A receptor at 1 uM
Sequence of 5-hydroxytryptamine receptor 2A (Homo sapiens) (P28223 whole entry): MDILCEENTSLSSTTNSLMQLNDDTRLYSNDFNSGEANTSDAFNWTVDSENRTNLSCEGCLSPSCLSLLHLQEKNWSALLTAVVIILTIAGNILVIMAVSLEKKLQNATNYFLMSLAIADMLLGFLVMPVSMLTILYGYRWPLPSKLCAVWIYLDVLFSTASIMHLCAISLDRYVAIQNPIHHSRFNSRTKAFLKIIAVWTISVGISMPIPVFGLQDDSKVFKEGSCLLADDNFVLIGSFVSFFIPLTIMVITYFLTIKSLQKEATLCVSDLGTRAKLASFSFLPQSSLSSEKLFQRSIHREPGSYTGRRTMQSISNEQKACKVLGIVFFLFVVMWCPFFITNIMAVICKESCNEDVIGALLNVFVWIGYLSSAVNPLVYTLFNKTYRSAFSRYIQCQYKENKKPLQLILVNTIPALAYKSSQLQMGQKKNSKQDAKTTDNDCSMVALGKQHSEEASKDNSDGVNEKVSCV

[16] = target: Serotonin 3 (5-HT3) receptor (Homo sapiens) (UniProt P46098+A5X5Y0+O95264+Q70Z44+Q8WXA8); assay: Inhibition of 5HT3 receptor at 1 uM; format: protein-complex assay
Homo sapiens [17] = organism: Homo sapiens; assay: Inhibition of neuronal nicotinic receptor at 1 uM
Homo sapiens [18] = organism: Homo sapiens; assay: Inhibition of muscle nicotinic receptor at 1 uM
[19] = target: Kappa-type opioid receptor (Homo sapiens) (UniProt P41145); assay: Inhibition of kappa opioid receptor at 1 uM
Sequence of Kappa-type opioid receptor (Homo sapiens) (P41145 whole entry): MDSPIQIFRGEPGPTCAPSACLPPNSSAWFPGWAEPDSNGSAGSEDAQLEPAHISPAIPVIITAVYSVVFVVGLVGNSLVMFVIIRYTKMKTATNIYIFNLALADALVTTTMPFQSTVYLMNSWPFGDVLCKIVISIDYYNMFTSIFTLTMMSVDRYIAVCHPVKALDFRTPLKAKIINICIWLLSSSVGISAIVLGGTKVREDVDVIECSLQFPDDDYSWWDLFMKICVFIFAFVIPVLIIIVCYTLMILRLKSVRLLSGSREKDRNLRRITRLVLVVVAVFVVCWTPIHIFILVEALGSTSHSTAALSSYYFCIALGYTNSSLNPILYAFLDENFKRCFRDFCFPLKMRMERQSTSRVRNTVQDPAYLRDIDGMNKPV

[20] = target: Platelet-activating factor receptor (Homo sapiens) (UniProt P25105); assay: Inhibition of platelet activating factor receptor at 1 uM
Sequence of Platelet-activating factor receptor (Homo sapiens) (P25105 whole entry): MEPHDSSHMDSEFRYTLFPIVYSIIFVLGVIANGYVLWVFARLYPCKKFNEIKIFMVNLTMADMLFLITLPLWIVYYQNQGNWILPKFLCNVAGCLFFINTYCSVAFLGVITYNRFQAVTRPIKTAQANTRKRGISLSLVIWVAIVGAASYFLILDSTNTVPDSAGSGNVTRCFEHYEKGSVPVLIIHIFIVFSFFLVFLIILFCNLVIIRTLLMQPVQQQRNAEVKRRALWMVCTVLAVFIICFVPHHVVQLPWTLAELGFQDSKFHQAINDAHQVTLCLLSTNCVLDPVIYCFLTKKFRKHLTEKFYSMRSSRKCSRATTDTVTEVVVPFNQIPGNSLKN

[21] = target: Glucocorticoid receptor (Homo sapiens) (UniProt P04150); assay: Inhibition of glucocorticoid receptor at 1 uM
Sequence of Glucocorticoid receptor (Homo sapiens) (P04150 whole entry): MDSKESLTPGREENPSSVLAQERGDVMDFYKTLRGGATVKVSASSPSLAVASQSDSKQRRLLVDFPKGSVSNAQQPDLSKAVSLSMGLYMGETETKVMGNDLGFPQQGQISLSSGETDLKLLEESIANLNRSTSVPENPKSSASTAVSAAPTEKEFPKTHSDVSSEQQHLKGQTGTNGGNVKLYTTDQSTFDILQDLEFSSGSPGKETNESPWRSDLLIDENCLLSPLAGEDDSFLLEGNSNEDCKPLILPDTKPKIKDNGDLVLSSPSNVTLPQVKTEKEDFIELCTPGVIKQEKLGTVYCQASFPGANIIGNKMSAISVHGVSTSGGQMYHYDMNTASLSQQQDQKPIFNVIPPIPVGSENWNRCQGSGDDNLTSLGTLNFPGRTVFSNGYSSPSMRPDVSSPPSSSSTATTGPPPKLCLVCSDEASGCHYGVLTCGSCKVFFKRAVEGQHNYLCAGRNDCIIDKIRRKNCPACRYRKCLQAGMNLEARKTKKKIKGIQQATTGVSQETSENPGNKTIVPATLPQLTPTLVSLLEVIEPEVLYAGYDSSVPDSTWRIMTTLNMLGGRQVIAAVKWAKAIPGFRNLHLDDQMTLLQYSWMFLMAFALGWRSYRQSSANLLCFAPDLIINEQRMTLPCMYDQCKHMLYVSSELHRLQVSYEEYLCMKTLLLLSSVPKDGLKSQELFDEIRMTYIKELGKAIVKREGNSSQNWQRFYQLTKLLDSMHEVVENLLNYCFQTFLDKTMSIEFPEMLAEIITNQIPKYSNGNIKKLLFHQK

Homo sapiens [22] = organism: Homo sapiens; assay: Inhibition of IKr potassium channel at 1 uM
[23] = Intrinsic clearance in rat microsomes; format: ADME, Microsome
[24] = Intrinsic clearance in dog microsomes; format: ADME, Canis lupus familiaris, Liver, Microsome
[25] = Intrinsic clearance in human microsomes; format: ADME, Microsome
CYP2C9 = assay: Metabolic stability in human liver microsome at 0.5 uM in presence of 5 uM CYP2C9 inhibitor sulfaphenazole; format: ADME; conditions: liver microsomes, with 5 uM sulfaphenazole (CYP2C9 inhibitor)
CYP2C19 = assay: Metabolic stability in human liver microsome at 0.5 uM in presence of 200 uM CYP2C19 inhibitor (S)-mephenytoin; format: ADME; conditions: liver microsomes, with 200 uM (S)-mephenytoin (CYP2C19 inhibitor)
CYP2D6 = assay: Metabolic stability in human liver microsome at 0.5 uM in presence of 5 uM CYP2D6 inhibitor quinidine; format: ADME; conditions: liver microsomes, with 5 uM quinidine (CYP2D6 inhibitor)
Plasma [26] = assay: Percentage unbound ligand in dog blood at 0.2 uM; format: ADME, cell-free, Canis lupus familiaris
Plasma [27] = assay: Percentage unbound ligand in human blood at 0.2 uM; format: ADME, cell-free
[28] = Plasma clearance in rat at 1 mg/kg, iv; format: ADME, organism-based; set-up: dose 1 mg/kg, route intravenous
[29] = Plasma clearance in rat at 5 mg/kg, iv; format: ADME, organism-based; set-up: dose 5 mg/kg, route intravenous
[30] = Plasma clearance in portal cannulated Beagle dog at 1 mg/kg, iv; format: ADME, organism-based, Canis lupus familiaris; set-up: dose 1 mg/kg, route intravenous
[31] = Plasma clearance in monkey at 0.5 mg/kg, iv; format: ADME, organism-based, Macaca mulatta; set-up: dose 0.5 mg/kg, route intravenous; conditions: rhesus monkey
[32] = Volume of distribution at steady state in rat at 0.3 mg/kg, iv; format: ADME, organism-based; set-up: dose 0.3 mg/kg, route intravenous; conditions: in vivo, read-out: Vdss
[33] = Volume of distribution at steady state in rat at 5 mg/kg, iv; format: ADME, organism-based; set-up: dose 5 mg/kg, route intravenous; conditions: in vivo, read-out: Vdss
[34] = Volume of distribution at steady state in Beagle dog at 0.5 mg/kg, iv; format: ADME, organism-based, Canis lupus familiaris; set-up: dose 0.5 mg/kg, route intravenous; conditions: in vivo, read-out: Vdss
[35] = Volume of distribution at steady state in monkey at 0.5 mg/kg, iv; format: ADME, organism-based, Macaca mulatta; set-up: dose 0.5 mg/kg, route intravenous; conditions: rhesus monkey, in vivo, read-out: Vdss
[36] = Half life in Beagle dog at 0.5 mg/kg, iv; format: ADME, organism-based, Canis lupus familiaris; set-up: dose 0.5 mg/kg, route intravenous; conditions: in vivo
[37] = Half life in monkey at 0.5 mg/kg, iv; format: ADME, organism-based, Macaca mulatta; set-up: dose 0.5 mg/kg, route intravenous; conditions: rhesus monkey, in vivo
[38] = AUC (0 to t) in rat at 1 mg/kg, iv; format: ADME, organism-based; set-up: dose 1 mg/kg, route intravenous; conditions: plasma
[39] = AUC (0 to t) in rat at 5 mg/kg, iv; format: ADME, organism-based; set-up: dose 5 mg/kg, route intravenous; conditions: plasma
[40] = AUC (0 to infinity) in rat at 0.3 mg/kg, iv; format: ADME, organism-based; set-up: time infinity, dose 0.3 mg/kg, route intravenous; conditions: plasma
[41] = AUC (0 to infinity) in Beagle dog at 0.5 mg/kg, iv; format: ADME, organism-based, Canis lupus familiaris; set-up: time infinity, dose 0.5 mg/kg, route intravenous; conditions: plasma
[42] = Half life in rat at 3 mg/kg, po; format: ADME, organism-based; set-up: dose 3 mg/kg, route oral; conditions: in vivo
[43] = Half life in rat at 30 mg/kg, po; format: ADME, organism-based; set-up: dose 30 mg/kg, route oral; conditions: in vivo
[44] = Half life in portal cannulated Beagle dog at 1 mg/kg, po; format: ADME, organism-based, Canis lupus familiaris; set-up: dose 1 mg/kg, route oral; conditions: in vivo
[45] = AUC (0 to infinity) in rat at 3 mg/kg, po; format: ADME, organism-based; set-up: time infinity, dose 3 mg/kg, route oral; conditions: plasma
[46] = AUC (0 to infinity) in male rat at 30 mg/kg, po; format: ADME, organism-based; set-up: time infinity, dose 30 mg/kg, route oral; conditions: plasma
[47] = Cmax in rat at 3 mg/kg, po; format: ADME, organism-based; set-up: dose 3 mg/kg, route oral; conditions: in vivo
[48] = Cmax in Beagle dog at 5 mg/kg, po; format: ADME, organism-based, Canis lupus familiaris; set-up: dose 5 mg/kg, route oral; conditions: in vivo
[49] = Tmax in rat at 30 mg/kg, po; format: ADME, organism-based; set-up: dose 30 mg/kg, route oral; conditions: in vivo
[50] = Tmax in rat at 300 mg/kg, po; format: ADME, organism-based; set-up: dose 300 mg/kg, route oral; conditions: in vivo
[51] = Tmax in portal cannulated Beagle dog at 1 mg/kg, po; format: ADME, organism-based, Canis lupus familiaris; set-up: dose 1 mg/kg, route oral; conditions: in vivo
[52] = Tmax in Beagle dog at 0.5 mg/kg, po; format: ADME, organism-based, Canis lupus familiaris; set-up: dose 0.5 mg/kg, route oral; conditions: in vivo
[53] = Bioavailability in rat at 3 mg/kg, po; format: ADME, organism-based; conditions: in vivo
[54] = Bioavailability in Beagle dog at 0.5 mg/kg, po; format: ADME, organism-based, Canis lupus familiaris; conditions: in vivo
[55] = Bioavailability in Beagle dog at 5 mg/kg, po; format: ADME, organism-based, Canis lupus familiaris; conditions: in vivo
Canis familiaris = assay: Increase in fecal fat in obese Beagle dog at 0.39 mg/kg, po after 3 months; format: functional, Canis lupus familiaris, Feces
[56] = Permeability from apical to basolateral side of the Caco-2 cell membrane at 10 uM in presence of calcium; format: ADME, cell-based; conditions: human
Cytochrome P450 2C9 = Cytochrome P450 2C9 (Homo sapiens, UniProt P11712); assay: Inhibition of CYP2C9; format: ADME
Cytochrome P450 3A4 = Cytochrome P450 3A4 (Homo sapiens, UniProt P08684); assay: Inhibition of CYP3A4; format: ADME
Sequence of Cytochrome P450 3A4 (P08684 whole entry): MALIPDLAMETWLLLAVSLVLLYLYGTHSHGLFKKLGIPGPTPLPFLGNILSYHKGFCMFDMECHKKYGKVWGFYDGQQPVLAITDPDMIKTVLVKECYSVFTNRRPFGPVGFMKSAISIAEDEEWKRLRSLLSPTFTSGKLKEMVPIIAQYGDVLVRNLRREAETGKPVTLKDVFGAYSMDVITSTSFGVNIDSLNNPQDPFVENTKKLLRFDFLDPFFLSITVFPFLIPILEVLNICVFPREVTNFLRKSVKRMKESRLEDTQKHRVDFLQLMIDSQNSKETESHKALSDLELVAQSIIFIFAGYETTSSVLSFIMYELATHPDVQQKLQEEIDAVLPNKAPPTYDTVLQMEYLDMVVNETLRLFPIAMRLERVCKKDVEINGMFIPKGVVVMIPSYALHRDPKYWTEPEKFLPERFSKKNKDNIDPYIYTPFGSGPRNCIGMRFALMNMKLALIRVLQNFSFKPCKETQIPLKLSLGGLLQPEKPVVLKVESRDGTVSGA

Activity (Homo sapiens [2]): inactive
Activity [3]: inactive
Activity [4]: inactive
Activity (Homo sapiens [5]): inactive
Activity [6]: inactive
Activity [7]: inactive
Activity [8]: inactive
Activity [9]: inactive
Activity [10]: inactive
Activity [11]: inactive
Activity (Homo sapiens [12]): inactive
Activity [13]: inactive
Activity [14]: inactive
Activity [15]: inactive
Activity [16]: inactive
Activity (Homo sapiens [17]): inactive
Activity (Homo sapiens [18]): inactive
Activity [19]: inactive
Activity [20]: inactive
Activity [21]: inactive
CLint scaled [23]: 645 mL/min/kg
CLint scaled [24]: 1090 mL/min/kg
CLint scaled [25]: 91 mL/min/kg
half-life at 0.5 µM (CYP2C9): 0.783 h
half-life at 0.5 µM (CYP2C19): 1.17 h
half-life at 0.5 µM (CYP2D6): 0.6 h
Fu (Plasma [26]): 0.0088%
Fu (Plasma [27]): 0.0097%
clearance [28]: 37 mL/min/kg
clearance [29]: 14 mL/min/kg
clearance [30]: 7.6 mL/min/kg
clearance [31]: 12 mL/min/kg
Vd [32]: 11 L/kg
Vd [33]: 3.3 L/kg
Vd [34]: 1 L/kg
Vd [35]: 2.2 L/kg
half-life [36]: 5 h
half-life [37]: 6.7 h
AUC(0-t) [38]: 485 ng·h/mL
AUC(0-t) [39]: 5610 ng·h/mL
AUC(0-inf) [40]: 55 ng·h/mL
AUC(0-inf) [41]: 1550 ng·h/mL
half-life [42]: 6.3 h
half-life [43]: 6.3 h
half-life [44]: 6.8 h
AUC(0-inf) [45]: 40.7 ng·h/mL
AUC(0-inf) [46]: 379 ng·h/mL
Cmax [47]: 4.7 ng/mL
Cmax [48]: 250 ng/mL
Tmax [49]: 2.8 h
Tmax [50]: 6 h
Tmax [51]: 6.3 h
Tmax [52]: 3 h
bioavailability [53]: 2.6%
bioavailability [54]: 43%
bioavailability [55]: 12%
Papp A→B at 10 µM [56]: 0.4 ×10⁻⁶ cm/s
IC50 (Cytochrome P450 2C9): > 30 µM
IC50 (Cytochrome P450 3A4): > 30 µM
SMILES: CN(Cc1ccccc1)C(=O)[C@@H](NC(=O)c1cc2cc(NC(=O)c3ccccc3-c3ccc(C(F)(F)F)cc3)ccc2n1C)c1ccccc1 [DIRLOTAPIDE]
IC50 [1]: 0.0015 µM
Activity (Homo sapiens [22]): inactive
Activity (Canis familiaris): 1.86%

Reference: ChEMBL document CHEMBL1148857, “In vitro and in vivo profile of 5-[(4'-trifluoromethyl-biphenyl-2-carbonyl)-amino]-1H-indole-2-carboxylic acid benzylmethyl carbamoylamide (dirlotapide), a novel potent MTP inhibitor for obesity” (Bioorg Med Chem Lett, 2007)
